IC50 data for 1 compound are collected here from ChEMBL document CHEMBL4725256, “A critical update on the strategies towards modulators targeting androgen receptors” (Bioorg Med Chem, 2020).

The assay deals with T1, Androgen receptor (Rattus norvegicus, UniProt P15207).
T1 sequence (P15207 whole entry): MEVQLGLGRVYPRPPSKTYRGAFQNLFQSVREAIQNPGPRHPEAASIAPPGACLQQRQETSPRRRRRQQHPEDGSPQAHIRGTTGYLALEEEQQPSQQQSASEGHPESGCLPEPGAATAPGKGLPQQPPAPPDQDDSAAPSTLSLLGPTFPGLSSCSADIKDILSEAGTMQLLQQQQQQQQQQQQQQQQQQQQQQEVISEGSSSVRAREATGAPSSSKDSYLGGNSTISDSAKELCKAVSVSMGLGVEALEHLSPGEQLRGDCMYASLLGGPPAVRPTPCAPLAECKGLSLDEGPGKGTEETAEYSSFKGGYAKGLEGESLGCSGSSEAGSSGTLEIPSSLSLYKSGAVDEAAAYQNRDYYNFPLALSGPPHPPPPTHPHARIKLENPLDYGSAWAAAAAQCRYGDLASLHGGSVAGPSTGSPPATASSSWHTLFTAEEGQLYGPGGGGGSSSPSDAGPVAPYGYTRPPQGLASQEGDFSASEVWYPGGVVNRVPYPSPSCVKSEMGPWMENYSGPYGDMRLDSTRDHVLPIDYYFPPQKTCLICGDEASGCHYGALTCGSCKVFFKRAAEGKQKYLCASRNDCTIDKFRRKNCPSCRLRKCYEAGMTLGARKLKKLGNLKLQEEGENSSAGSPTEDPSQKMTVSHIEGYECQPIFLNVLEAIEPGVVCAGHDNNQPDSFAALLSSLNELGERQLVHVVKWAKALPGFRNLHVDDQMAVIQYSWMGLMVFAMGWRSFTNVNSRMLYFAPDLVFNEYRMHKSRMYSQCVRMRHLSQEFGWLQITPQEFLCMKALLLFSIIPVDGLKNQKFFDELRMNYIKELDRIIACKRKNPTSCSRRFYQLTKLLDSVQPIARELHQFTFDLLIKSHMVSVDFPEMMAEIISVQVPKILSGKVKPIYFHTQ
As to the kind of experiment: Antagonist activity at recombinant GST/His-tagged rat androgen receptor amino-terminal domain by fluorescence polarization assay. A general note: In fluorescence polarisation assays a small probe gives low polarisation when free and higher when bound to something large.

Consider `CC(C)(c1ccc(OCC(O)CO)cc1)c1ccc(OCC(O)CCl)cc1` (stereo unspecified), for which the IC50 is 6 µM.

A word on the IC50: it is the concentration at which inhibition is half-maximal.
